Reference: patent US9416123B2, “Kinase modulators for the treatment of cancer” (Synovo GmbH, priority 2011, dated 2016)

Key:
[1] = biological target: B-Raf V600E (Homo sapiens (Human), UniProt P15056, V600E); assay: Kinase assay (33P FlashPlate) B-Raf V600E; settings: read-out: IC50 B-Raf V600E (n = 1); Table 1, n = 1
Procedure: (§1) FlashPlates from Perkin Elmer (Boston, Mass., USA) with a 50 μl reaction volume are used. The reaction cocktail was pipetted in 4 steps in the following order: 15 μl of ATP solution (in H2O), 20 μl of assay buffer (see below), 5 μl of test sample in 10% DMSO, 10 μl of enzyme/substrate mixture (in H2O). […] Certain assays also contained 1 mM CaCl2, 4 mM EDTA, 5 μg/ml Phosphatidylserine and 1 μg/ml 1.2-Dioleyl-glycerol. The MYLK2, CAMK1D, CAMK2A, CAMK2B, CAMK2D, CAMK4, CAMKK2, DAPK2 and EEF2K assays additionally contained 1 μg/ml Calmodulin and 0.5 mM CaCl2. The PRKG1 and PRKG2 assays additionally contained 1 μM cGMP. Recombinant Protein Kinases: All protein kinases were expressed in Sf9 insect cells or in E. coli as recombinant GST-fusion proteins or His-tagged proteins. All kinases were produced from human cDNAs, except JAK2, for which the mouse cDNA was used. […] The purity of the protein kinases was examined by SDS-PAGE/coomassie staining. The identity of the protein kinases was checked by mass spectroscopy. Assays were made under license from Chemicon International Inc. for JAK2. […] The reaction was stopped with 50 μl of 2% (v/v) H3PO4, plates were aspirated and washed two times with 200 μl 0.9% (w/v) NaCl. All assays were performed with a BeckmanCoulter Biomek 2000/SL robotic system.

[2] = biological target: Src (Homo sapiens (Human), UniProt P12931); assay: Kinase assay (33P FlashPlate) Src; settings: read-out: IC50 Src (n = 1); Table 1, n = 1
Procedure: as §1

[3] = biological target: VEGFR-2 (Homo sapiens (Human), UniProt P35968); assay: Kinase assay (33P FlashPlate) VEGFR-2; settings: read-out: IC50 VEGFR-2 (n = 1); Table 1, n = 1
Procedure: as §1

[4] = biological target: RIPK2 (Homo sapiens (Human), UniProt O43353); assay: Kinase assay (33P FlashPlate) RIPK2; format: biochemical; settings: Table 3
Sequence of RIPK2 (O43353 whole entry): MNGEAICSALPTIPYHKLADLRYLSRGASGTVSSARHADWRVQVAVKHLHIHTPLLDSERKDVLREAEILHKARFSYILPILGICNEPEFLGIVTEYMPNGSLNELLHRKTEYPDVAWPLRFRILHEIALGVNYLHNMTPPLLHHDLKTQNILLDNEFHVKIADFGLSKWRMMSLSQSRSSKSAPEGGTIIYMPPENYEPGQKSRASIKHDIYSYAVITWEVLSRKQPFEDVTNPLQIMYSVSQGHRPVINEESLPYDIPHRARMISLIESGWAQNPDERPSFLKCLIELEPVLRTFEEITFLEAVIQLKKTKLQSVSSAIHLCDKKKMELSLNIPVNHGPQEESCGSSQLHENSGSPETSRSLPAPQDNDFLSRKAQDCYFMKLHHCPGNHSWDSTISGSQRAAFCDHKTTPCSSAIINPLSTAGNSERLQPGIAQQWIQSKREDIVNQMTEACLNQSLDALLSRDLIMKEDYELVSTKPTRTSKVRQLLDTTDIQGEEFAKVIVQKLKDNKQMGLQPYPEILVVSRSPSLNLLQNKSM

Sequence of Src (P12931 whole entry, looked up): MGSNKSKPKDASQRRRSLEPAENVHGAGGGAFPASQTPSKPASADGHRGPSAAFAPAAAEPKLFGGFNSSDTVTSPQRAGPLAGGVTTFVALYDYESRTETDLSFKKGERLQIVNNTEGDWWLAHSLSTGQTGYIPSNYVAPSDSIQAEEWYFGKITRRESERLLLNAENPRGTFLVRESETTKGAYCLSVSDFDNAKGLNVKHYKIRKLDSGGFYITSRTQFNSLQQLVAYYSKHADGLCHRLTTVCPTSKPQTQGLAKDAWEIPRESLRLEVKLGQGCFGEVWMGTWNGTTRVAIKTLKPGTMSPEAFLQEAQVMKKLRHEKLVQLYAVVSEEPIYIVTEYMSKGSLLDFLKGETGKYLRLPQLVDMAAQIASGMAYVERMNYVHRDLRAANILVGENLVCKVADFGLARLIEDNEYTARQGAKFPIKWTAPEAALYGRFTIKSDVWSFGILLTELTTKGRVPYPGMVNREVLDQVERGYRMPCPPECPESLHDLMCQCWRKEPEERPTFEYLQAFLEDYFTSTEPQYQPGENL
Sequence of VEGFR-2 (P35968 20-1356): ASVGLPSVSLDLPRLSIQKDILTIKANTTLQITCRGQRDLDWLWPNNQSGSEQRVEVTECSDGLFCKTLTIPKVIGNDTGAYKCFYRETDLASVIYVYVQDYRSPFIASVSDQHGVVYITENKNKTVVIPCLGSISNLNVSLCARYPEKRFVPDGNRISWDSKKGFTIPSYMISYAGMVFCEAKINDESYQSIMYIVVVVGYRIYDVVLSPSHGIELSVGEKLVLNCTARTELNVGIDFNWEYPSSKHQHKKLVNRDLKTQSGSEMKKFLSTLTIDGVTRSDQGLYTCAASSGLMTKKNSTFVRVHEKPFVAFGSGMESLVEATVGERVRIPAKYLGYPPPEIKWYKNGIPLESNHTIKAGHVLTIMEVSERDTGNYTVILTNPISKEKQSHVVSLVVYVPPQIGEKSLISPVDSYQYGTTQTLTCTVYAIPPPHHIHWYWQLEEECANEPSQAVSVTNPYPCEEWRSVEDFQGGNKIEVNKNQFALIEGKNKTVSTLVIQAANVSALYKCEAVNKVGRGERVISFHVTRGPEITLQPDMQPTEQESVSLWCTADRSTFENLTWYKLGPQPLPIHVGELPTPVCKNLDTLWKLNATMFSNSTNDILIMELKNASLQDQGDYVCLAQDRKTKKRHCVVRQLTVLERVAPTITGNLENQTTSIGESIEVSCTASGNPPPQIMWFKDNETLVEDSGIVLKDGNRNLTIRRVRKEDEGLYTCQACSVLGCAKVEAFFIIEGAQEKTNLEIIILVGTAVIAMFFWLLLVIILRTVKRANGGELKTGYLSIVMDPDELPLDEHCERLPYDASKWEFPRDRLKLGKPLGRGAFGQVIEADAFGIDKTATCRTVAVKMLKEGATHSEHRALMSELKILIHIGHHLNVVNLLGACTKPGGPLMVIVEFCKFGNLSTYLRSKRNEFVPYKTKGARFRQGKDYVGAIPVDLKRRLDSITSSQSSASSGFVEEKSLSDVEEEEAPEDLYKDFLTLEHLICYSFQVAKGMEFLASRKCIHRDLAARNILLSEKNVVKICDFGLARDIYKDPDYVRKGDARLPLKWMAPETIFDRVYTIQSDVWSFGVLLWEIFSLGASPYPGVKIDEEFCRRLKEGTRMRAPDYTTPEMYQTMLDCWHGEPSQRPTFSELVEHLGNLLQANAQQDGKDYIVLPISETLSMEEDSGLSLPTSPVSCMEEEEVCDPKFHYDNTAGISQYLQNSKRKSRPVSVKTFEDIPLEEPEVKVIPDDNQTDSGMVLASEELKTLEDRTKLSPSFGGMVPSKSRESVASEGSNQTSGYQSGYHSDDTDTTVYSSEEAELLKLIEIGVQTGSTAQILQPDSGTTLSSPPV
Sequence of B-Raf V600E (P15056 whole entry V600E): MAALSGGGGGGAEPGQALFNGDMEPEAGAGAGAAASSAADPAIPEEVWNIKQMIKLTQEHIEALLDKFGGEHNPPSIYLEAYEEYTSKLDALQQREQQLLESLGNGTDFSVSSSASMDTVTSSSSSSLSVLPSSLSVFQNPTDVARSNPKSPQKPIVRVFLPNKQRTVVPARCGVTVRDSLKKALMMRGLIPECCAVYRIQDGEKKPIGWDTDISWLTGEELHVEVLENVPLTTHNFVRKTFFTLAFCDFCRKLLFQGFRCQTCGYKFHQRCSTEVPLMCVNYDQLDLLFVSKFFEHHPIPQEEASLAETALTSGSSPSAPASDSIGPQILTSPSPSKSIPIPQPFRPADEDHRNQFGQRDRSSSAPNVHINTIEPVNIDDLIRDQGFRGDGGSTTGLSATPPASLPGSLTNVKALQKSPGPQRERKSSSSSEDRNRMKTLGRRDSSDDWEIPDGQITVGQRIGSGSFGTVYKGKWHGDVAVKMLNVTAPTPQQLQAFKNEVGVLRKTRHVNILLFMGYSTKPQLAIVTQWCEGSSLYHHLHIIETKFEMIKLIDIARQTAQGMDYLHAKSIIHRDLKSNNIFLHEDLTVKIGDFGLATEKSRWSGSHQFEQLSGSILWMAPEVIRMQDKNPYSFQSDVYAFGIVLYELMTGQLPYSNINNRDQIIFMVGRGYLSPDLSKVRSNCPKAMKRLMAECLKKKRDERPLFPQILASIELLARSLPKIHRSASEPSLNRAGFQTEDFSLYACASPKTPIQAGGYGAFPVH

Row | SMILES | IC50 [1] [µM] | IC50 [2] [µM] | IC50 [3] [µM] | IC50 [4] [µM] | melting point [°C]
1 | Clc1cc(Cl)c(N/N=C/c2ccncc2)c(Cl)c1 [Compound 3a] | 2.5 | 2 | 0.21 | – | –
2 | Nc1c(-c2ccc(F)cc2)c(-c2ccncc2)nn1-c1ccccc1 [Compound 5, 4-(4-Fluorophenyl)-1-phenyl-3-(pyridine-4-yl)-1H-pyrazol-5-amine] | 0.9 | 52 | 2.4 | – | –
3 | Nc1c(-c2ccc(F)cc2)c(-c2ccncc2)nn1-c1c(Cl)cc(Cl)cc1Cl [Compound 6] | – | – | – | 0.041 | –
4 | COc1ccc(-n2nc(-c3ccncc3)c(-c3ccc(F)cc3)c2N)cc1 [Compound 8] | 0.86 | 23 | 1.9 | – | 200
5 | N#Cc1ccc(-n2nc(-c3ccncc3)c(-c3ccc(F)cc3)c2N)cc1 [Compound 11, 4-(5-Amino-4-(4-fluorophenyl)-3-(pyridine-4-yl)-1H-pyrazol-1-yl)benzonitrile] | 1.7 | > 100 | 1.3 | – | –
6 | NC(=O)c1c(-c2ccncc2)nn(-c2c(Cl)cc(Cl)cc2Cl)c1N [Compound 14, 5-Amino-3-(pyridin-4-yl)-1-(2,4,6-trichlorophenyl)-1H-pyrazole-4-carboxamide] | > 100 | 6.4 | 31 | – | –
7 | CCOC(=O)c1c(-c2ccncc2)nn(-c2c(Cl)cc(Cl)cc2Cl)c1N [Compound 15, Ethyl 5-amino-3-(pyridin-4-yl)-1-(2,4,6-trichlorophenyl)-1H-pyrazole-4-carboxylate] | > 100 | > 100 | > 100 | – | –
8 | Nc1c(C(=O)O)c(-c2ccncc2)nn1-c1c(Cl)cc(Cl)cc1Cl [Compound 16, 5-Amino-3-(pyridine-4-yl)-1-(2,4,6-trichlorophenyl)-1H-pyrazole-4-carboxylic acid] | > 100 | 55 | 43 | – | 208
9 | NC(=O)c1c(-c2ccncc2)nn(-c2ccccc2)c1N [Compound 18, 5-Amino-1-phenyl-3-(pyridine-4-yl)-1H-pyrazole-4-carboxamide] | 64 | 19 | 48 | – | –
10 | Nc1cc(-c2ccncc2)nn1-c1c(Cl)cc(Cl)cc1Cl [Compound 19, 3-(Pyridin-4-yl)-1-(2,4,6-trichlorophenyl)-1H-pyrazol-5-amine] | > 100 | > 100 | 87 | – | –
11 | Fc1ccc(-c2cn(-c3ccc(C(F)(F)F)cc3)nc2-c2ccncc2)cc1 [Compound 20] | 2.7 | 12 | 27 | – | –
